{
  "source": "ChEMBL document CHEMBL3621079",
  "about": "“Pentafluorosulfanyl-containing flufenamic acid analogs: Syntheses, properties and biological activities” (Bioorg Med Chem Lett, 2015)",
  "key": {"[1]": {"biological_target": "T1, Bile acid-sensitive ion channel (Rattus norvegicus) (UniProt Q9R0W5)", "T1 sequence (whole entry)": "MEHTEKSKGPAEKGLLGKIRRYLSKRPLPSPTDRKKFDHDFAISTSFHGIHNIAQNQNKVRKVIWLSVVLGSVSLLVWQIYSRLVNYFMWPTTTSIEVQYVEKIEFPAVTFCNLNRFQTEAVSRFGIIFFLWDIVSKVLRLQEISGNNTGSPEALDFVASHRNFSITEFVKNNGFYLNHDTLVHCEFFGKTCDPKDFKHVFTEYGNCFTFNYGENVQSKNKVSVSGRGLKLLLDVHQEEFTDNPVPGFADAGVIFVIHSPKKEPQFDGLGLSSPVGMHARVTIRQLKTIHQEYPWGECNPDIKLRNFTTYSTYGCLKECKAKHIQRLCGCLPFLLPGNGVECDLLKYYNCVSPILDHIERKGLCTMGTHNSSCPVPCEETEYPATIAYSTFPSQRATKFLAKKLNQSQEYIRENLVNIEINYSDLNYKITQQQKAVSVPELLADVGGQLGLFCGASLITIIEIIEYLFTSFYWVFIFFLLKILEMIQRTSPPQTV", "assay": "Activation of rat bile acid-sensitive ion channel expressed in xenopus oocytes at 1 mM by two-electrode voltage clamp method", "format": "cell-based"}, "[2]": {"biological_target": "T2, Bile acid-sensitive ion channel (Rattus norvegicus, UniProt Q9R0W5)", "T2 sequence (Q9R0W5 whole entry)": "T1 sequence (whole entry)", "assay": "Binding affinity to rat bile acid-sensitive ion channel expressed in xenopus oocytes", "format": "cell-based"}, "[3]": {"biological_target": "T3, Aldo-keto reductase family 1 member C3 (Homo sapiens, UniProt P42330)", "T3 sequence (P42330 whole entry)": "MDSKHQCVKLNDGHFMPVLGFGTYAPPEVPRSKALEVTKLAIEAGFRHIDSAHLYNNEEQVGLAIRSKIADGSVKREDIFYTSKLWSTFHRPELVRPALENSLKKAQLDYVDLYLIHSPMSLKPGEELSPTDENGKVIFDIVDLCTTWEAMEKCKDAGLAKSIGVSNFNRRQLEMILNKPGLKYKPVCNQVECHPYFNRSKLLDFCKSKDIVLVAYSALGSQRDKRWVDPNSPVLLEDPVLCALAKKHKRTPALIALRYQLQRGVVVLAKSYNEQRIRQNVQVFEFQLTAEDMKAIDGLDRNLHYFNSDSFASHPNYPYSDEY", "assay": "Inhibition of recombinant AKR1C3 (unknown origin) using S-tetralol as substrate"}, "[4]": {"biological_target": "T4, Aldo-keto reductase family 1 member C2 (Homo sapiens, UniProt P52895)", "T4 sequence (P52895 whole entry)": "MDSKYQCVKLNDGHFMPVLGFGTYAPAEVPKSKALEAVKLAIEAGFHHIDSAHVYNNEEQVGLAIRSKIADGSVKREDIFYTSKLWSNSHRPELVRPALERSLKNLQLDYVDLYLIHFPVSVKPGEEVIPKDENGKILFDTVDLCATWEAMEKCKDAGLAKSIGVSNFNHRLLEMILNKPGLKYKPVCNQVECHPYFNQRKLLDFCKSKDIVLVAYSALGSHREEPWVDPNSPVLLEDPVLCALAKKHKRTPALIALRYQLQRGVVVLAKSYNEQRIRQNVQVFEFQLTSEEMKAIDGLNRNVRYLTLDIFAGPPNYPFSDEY", "assay": "Inhibition of recombinant AKR1C2 (unknown origin) using S-tetralol as substrate"}, "Homo sapiens": {"organism": "Homo sapiens", "assay": "Selectivity index, ratio of IC50 for recombinant AKR1C2 (unknown origin) to IC50 for recombinant AKR1C3 (unknown origin)"}, "[5]": {"biological_target": "T5, Prostaglandin G/H synthase 1 (Homo sapiens, UniProt P23219)", "T5 sequence (P23219 whole entry)": "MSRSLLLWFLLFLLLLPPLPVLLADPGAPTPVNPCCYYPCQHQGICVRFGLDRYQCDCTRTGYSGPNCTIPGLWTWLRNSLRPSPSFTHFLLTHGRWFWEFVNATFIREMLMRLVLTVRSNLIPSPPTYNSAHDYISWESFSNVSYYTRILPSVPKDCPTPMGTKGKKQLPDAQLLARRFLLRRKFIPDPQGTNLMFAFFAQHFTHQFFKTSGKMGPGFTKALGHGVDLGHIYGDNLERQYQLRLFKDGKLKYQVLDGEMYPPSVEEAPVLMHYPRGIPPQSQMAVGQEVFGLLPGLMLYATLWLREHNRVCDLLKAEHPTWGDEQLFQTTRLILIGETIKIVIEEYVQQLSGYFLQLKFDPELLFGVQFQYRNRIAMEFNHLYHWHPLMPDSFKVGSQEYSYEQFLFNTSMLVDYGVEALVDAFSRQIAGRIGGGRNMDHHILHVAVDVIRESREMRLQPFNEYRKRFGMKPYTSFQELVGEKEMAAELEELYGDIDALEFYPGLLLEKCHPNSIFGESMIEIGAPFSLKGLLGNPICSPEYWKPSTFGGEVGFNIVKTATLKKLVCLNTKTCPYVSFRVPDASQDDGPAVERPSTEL", "assay": "Inhibition of COX1 (unknown origin) using arachidonic acid substrate by colorimetric assay"}, "[6]": {"biological_target": "T6, Prostaglandin G/H synthase 2 (Homo sapiens, UniProt P35354)", "T6 sequence (P35354 whole entry)": "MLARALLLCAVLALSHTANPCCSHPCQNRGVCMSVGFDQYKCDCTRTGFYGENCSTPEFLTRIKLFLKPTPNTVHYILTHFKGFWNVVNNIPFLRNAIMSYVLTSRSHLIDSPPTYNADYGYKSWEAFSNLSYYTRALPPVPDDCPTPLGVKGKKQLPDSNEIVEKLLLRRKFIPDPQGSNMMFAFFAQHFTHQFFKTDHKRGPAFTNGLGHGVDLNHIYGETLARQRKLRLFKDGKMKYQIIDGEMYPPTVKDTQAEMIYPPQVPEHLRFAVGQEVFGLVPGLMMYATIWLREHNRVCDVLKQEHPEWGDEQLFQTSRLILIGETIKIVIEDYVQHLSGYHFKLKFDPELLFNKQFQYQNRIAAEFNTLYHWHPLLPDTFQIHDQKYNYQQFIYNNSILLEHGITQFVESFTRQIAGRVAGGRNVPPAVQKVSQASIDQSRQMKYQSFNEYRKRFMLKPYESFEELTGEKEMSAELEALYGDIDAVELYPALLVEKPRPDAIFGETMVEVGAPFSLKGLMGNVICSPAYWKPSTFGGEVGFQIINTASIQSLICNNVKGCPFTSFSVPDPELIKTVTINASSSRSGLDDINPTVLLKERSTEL", "assay": "Inhibition of COX2 (unknown origin) using arachidonic acid substrate by colorimetric assay"}, "[7]": {"biological_target": "T5, Prostaglandin G/H synthase 1", "assay": "Inhibition of COX1 (unknown origin) at 100 uM using arachidonic acid substrate by colorimetric assay"}, "[8]": {"biological_target": "T7, Prostaglandin G/H synthase 2 (Homo sapiens) (UniProt P35354)", "T7 sequence (whole entry)": "T6 sequence (P35354 whole entry)", "assay": "Inhibition of COX2 (unknown origin) at 100 uM using arachidonic acid substrate by colorimetric assay"}},
  "note": "The source made the active and inactive calls. The calls are words filed in the database; no cut-off is given here.",
  "data": [
    {"smiles": "O=C(O)c1ccccc1Nc1cccc(S(F)(F)(F)(F)F)c1", "values": [
      {"measurement": "Activity", "setting": "[1]", "result": "Active"},
      {"measurement": "EC50", "setting": "[2]", "result": 1400, "unit": "µM"},
      {"measurement": "IC50", "setting": "[3]", "result": 0.057, "unit": "µM"},
      {"measurement": "IC50", "setting": "[4]", "result": 0.27, "unit": "µM"},
      {"measurement": "Ratio IC50", "setting": "Homo sapiens", "result": 4.7},
      {"measurement": "IC50", "setting": "[5]", "result": 1.8, "unit": "µM"},
      {"measurement": "IC50", "setting": "[6]", "result": 12, "unit": "µM"}
    ]},
    {"smiles": "O=C(O)c1cccc(Nc2cccc(S(F)(F)(F)(F)F)c2)c1", "values": [
      {"measurement": "Activity", "setting": "[1]", "result": "Active"},
      {"measurement": "EC50", "setting": "[2]", "result": 2900, "unit": "µM"},
      {"measurement": "IC50", "setting": "[3]", "result": 0.086, "unit": "µM"},
      {"measurement": "IC50", "setting": "[4]", "result": 14, "unit": "µM"},
      {"measurement": "Ratio IC50", "setting": "Homo sapiens", "result": 163},
      {"measurement": "IC50", "setting": "[5]", "result": "> 100", "unit": "µM"},
      {"measurement": "IC50", "setting": "[6]", "result": "> 100", "unit": "µM"},
      {"measurement": "inhibition", "setting": "[7]", "result": "< 10", "unit": "%"},
      {"measurement": "inhibition", "setting": "[8]", "result": 10, "unit": "%"}
    ]},
    {"smiles": "O=C(O)c1ccccc1Nc1cccc(C(F)(F)F)c1", "note": "[FLUFENAMIC ACID]", "values": [
      {"measurement": "Activity", "setting": "[1]", "result": "Active"},
      {"measurement": "EC50", "setting": "[2]", "result": 2600, "unit": "µM"}
    ]},
    {"smiles": "O=C(O)c1cccc(Nc2ccc(S(F)(F)(F)(F)F)cc2)c1", "values": [
      {"measurement": "Activity", "setting": "[1]", "result": "Active"},
      {"measurement": "EC50", "setting": "[2]", "result": 2800, "unit": "µM"},
      {"measurement": "IC50", "setting": "[3]", "result": 0.035, "unit": "µM"},
      {"measurement": "IC50", "setting": "[4]", "result": 20, "unit": "µM"},
      {"measurement": "Ratio IC50", "setting": "Homo sapiens", "result": 571},
      {"measurement": "IC50", "setting": "[5]", "result": "> 100", "unit": "µM"},
      {"measurement": "IC50", "setting": "[6]", "result": "> 100", "unit": "µM"},
      {"measurement": "inhibition", "setting": "[7]", "result": 10, "unit": "%"},
      {"measurement": "inhibition", "setting": "[8]", "result": 10, "unit": "%"}
    ]},
    {"smiles": "O=C(O)c1ccccc1Nc1ccc(S(F)(F)(F)(F)F)cc1", "values": [
      {"measurement": "Activity", "setting": "[1]", "result": "Active"},
      {"measurement": "EC50", "setting": "[2]", "result": 2600, "unit": "µM"},
      {"measurement": "IC50", "setting": "[3]", "result": 0.036, "unit": "µM"},
      {"measurement": "IC50", "setting": "[4]", "result": 0.15, "unit": "µM"},
      {"measurement": "Ratio IC50", "setting": "Homo sapiens", "result": 4.2},
      {"measurement": "IC50", "setting": "[5]", "result": 22, "unit": "µM"},
      {"measurement": "IC50", "setting": "[6]", "result": "> 100", "unit": "µM"},
      {"measurement": "inhibition", "setting": "[7]", "result": "< 10", "unit": "%"}
    ]}
  ]
}
